# Laboratory results reported in ChEMBL document CHEMBL5346873, “Strategic modification of low-activity natural antimicrobial peptides confers antibacterial potential in vitro and in vivo” (Eur J Med Chem, 2023).
# What was measured:
# [1] = tested on: Acinetobacter baumannii; experiment: Bactericidal activity against Acinetobacter baumannii incubated for overnight; assay type: functional
# [2] = Hemolytic activity in human RBC at 100 ug/ml incubated for 1 hr; assay type: toxicity, cell-based, Erythrocyte; settings: human red blood cells (erythrocytes), at 100 µg/mL, read-out: Activity
# [3] = tested on: Staphylococcus aureus; experiment: Bactericidal activity against Staphylococcus aureus incubated for overnight; assay type: functional
# [4] = tested on: Vibrio vulnificus; experiment: Antibacterial activity against Vibrio vulnificus 204 assessed as induction of resistance development by measuring fold increase in MIC measured after 15 passages; assay type: functional
Compound,MBC [1] [µg/mL],"hemolysis at 1 h, 100 ug/ml [2] [%]",MBC [3] [µg/mL],fold change (FC) [4]
H-FKDKSVLKIVDIFVDIYF-OH,> 100,2.7,> 100,–
H-FKWKSVLKGVKGFVDGYF-OH,> 100,99.8,> 100,–
H-KKCIAKAILKKADDLLDDLVNP-OH,> 100,0,> 100,–
H-KKCIAKAILKKAKDLLDDLVNP-OH,50,0,> 100,–
H-FKDKSVLKIVKIFVDIYF-OH,> 100,16.3,> 100,–
CN(C)[C@@H]1C(O)=C(C(N)=O)C(=O)[C@@]2(O)C(O)=C3C(=O)c4c(O)cccc4[C@@](C)(O)[C@H]3C[C@@H]12 [TETRACYCLINE],–,–,–,128
